Test results published in patent US5700780A, “Antiviral peptide derivatives having a 2-oxoalkyl amino acid side chain” (Boehringer Ingelheim (Canada), Ltd., priority 1989, dated 1997).
Where a SMILES comes first, the peptide text is derived from it.

Target: HSV-1 ribonucleotide reductase (Human herpesvirus 1, UniProt P08543)
Assay: biochemical
Excerpt: Inhibition of Herpes Simplex Virus (HSV, type 1) Ribonucleotide Reductase
HSV-1 ribonucleotide reductase (partially purified) was obtained from quiescent BHK-21/C13 cells infected with strain F HSV-1 virus at 10 plaque forming units/cell as described by E. A. Cohen et al., J. Gen. Virol., 66, 733 (1985).
The procedure described by P. Gaudreau et al., J. Biol, Chem., 262, 12413 (1987), was employed. […] The number of units of the enzyme preparation used in each assay was constant, based on the specific activity of the enzyme preparation.

HSV-1 ribonucleotide reductase, sequence (P08543 whole entry): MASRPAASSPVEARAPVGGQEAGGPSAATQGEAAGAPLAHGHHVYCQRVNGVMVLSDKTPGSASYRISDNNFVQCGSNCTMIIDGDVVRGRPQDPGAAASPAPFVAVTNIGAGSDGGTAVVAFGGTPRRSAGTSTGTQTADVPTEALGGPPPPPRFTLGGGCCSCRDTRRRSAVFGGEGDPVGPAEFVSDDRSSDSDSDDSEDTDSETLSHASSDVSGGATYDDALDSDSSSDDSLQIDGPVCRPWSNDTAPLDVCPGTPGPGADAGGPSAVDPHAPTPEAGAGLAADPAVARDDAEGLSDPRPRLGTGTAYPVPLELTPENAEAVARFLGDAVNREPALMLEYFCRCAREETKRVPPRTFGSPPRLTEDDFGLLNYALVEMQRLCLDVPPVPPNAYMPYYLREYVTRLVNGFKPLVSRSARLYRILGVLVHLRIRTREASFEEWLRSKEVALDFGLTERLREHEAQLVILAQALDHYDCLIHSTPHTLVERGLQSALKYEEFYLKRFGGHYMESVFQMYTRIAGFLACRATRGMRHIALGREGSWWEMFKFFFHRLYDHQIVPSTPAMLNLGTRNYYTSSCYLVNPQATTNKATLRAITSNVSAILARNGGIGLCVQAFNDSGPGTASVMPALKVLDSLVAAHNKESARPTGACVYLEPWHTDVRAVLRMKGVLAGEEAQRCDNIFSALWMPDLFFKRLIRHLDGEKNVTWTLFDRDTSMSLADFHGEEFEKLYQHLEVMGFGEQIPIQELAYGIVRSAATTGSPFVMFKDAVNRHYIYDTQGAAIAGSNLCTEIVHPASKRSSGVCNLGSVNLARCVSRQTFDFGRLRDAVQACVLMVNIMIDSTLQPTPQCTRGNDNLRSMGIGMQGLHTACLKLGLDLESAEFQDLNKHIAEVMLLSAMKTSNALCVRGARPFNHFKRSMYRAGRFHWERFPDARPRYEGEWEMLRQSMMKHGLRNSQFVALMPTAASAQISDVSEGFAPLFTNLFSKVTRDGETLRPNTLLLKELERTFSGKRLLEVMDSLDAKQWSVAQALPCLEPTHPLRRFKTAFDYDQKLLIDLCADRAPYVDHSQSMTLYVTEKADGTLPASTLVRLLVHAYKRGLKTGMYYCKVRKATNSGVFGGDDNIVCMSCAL

Compound	IC50 [µM]
CCCCCCCCCCCC(=O)C[C@H](NC(=O)[C@@H](NC(=O)C(CC)CC)[C@@H](C)CC)C(=O)N[C@@H](CC(=O)O)C(=O)N[C@@H](CC(C)C)C(=O)O [2-Ethylbutanoyl-Ile--NHCH(2-oxotridecyl)-CO--Asp--Leu--OH]	8.5
CC[C@H](C)[C@H](NC(=O)[C@H](C(C)C)N(C)C(=O)CCc1ccccc1)C(=O)N[C@@H](CC(C)=O)C(=O)N[C@@H](CC(=O)O)C(=O)N[C@@H](CC(C)C)C(=O)O [PhCH2 CH2 CO--N--Me--Val--Ile--NHCH(2-oxopropyl)-CO--Asp--Leu--OH] (HELM PEPTIDE1{[O=C(CCc1ccccc1)[*:2]].[meV].I.[CC(=O)C[C@H](N[*:1])C(=O)[*:2]].D.L}$$$$V2.0)	1.3
CCCCCC(=O)C[C@H](NC(=O)[C@@H](NC(=O)C(CC)CC)C(C)(C)C)C(=O)N[C@@H](CC(=O)O)C(=O)N[C@@H](CC(C)C)C(=O)O [2-Ethylbutanoyl-Tbg--NHCH(2-oxoheptyl)-CO--Asp--Leu--OH]	7.5
CCC(CC)C(=O)N[C@H](C(=O)N[C@@H](CC(=O)C1CCCC1)C(=O)N[C@@H](CC(=O)O)C(=O)NCCC(C)(C)C)C(C)(C)C [2-Ethylbutanoyl-Tbg--NHCH(2-cyclopentyl-2-oxoethyl)-CO--Asp--NHCH2 CH2 C(CH3)3]	23
CCCCCCCC(=O)C[C@H](NC(=O)[C@@H](NC(=O)[C@H](C(C)C)N(C)C(=O)CCc1ccccc1)[C@@H](C)CC)C(=O)N[C@@H](CC(=O)O)C(=O)N[C@@H](CC(C)C)C(=O)O [PhCH2 CH2 CO--N--Me--Val--Ile--NHCH(2-oxononyl)-CO--Asp--Leu--OH] (HELM PEPTIDE1{[O=C(CCc1ccccc1)[*:2]].[meV].I.[CCCCCCCC(=O)C[C@H](N[*:1])C(=O)[*:2]].D.L}$$$$V2.0)	0.42
CCCCCCCC(=O)C[C@H](NC(=O)[C@@H](NC(=O)C(CC)CC)C(C)(C)C)C(=O)N[C@@H](CC(=O)O)C(=O)N[C@@H](CC(C)C)C(=O)O [2-Ethylbutanoyl-Tbg--NHCH(2-oxononyl)-CO--Asp--Leu--OH]	4.5
CCCCCCCCCCCC(=O)C[C@H](NC(=O)[C@@H](NC(=O)[C@H](C(C)C)N(C)C(=O)CCc1ccccc1)[C@@H](C)CC)C(=O)N[C@@H](CC(=O)O)C(=O)N[C@@H](CC(C)C)C(N)=O [PhCH2 CH2 CO--N--Me--Val--Ile--NHCH(2-oxotridecyl)-CO--Asp--Leu--NH2] (HELM PEPTIDE1{[O=C(CCc1ccccc1)[*:2]].[meV].I.[CCCCCCCCCCCC(=O)C[C@H](N[*:1])C(=O)[*:2]].D.L.[am]}$$$$V2.0)	6.3
CC[C@H](C)[C@H](NC(=O)[C@H](C(C)C)N(C)C(=O)CCc1ccccc1)C(=O)N[C@@H](CC(=O)C1CCCC1)C(=O)N[C@@H](CC(=O)O)C(=O)N[C@@H](CC(C)C)C(=O)O [PhCH2 CH2 CO--N--Me--Val--Ile--NHCH(2-cyclopentyl-2-oxoethyl)-CO--Asp--Leu--OH] (HELM PEPTIDE1{[O=C(CCc1ccccc1)[*:2]].[meV].I.[O=C(C[C@H](N[*:1])C(=O)[*:2])C1CCCC1].D.L}$$$$V2.0)	0.18
CCCCCCCC(=O)C[C@H](NC(=O)[C@@H](NC(=O)C(CC)CC)C(C)(C)C)C(=O)N[C@H](C(=O)N[C@@H](CC(C)C)C(=O)O)C(C)(C)C(=O)O [2-Ethylbutanoyl-Tbg--NHCH(2-oxononyl)-CO--NHCH[C(CH3)2 COOH]--CO--Leu--OH]	1.2
CCCCCCCC(=O)C[C@H](NC(=O)[C@@H](NC(=O)C(CC)CC)[C@@H](C)CC)C(=O)N[C@@H](CC(=O)O)C(=O)N[C@@H](CC(C)C)C(=O)O [2-Ethylbutanoyl-Ile--NHCH(2-oxononyl)-CO--Asp--Leu--OH]	24
